Test results published in PubChem BioAssay AID1963870 (Molecular Pharmacology Branch, DTP, NCI, 2024).

System: 292921-168-R-J2-PDC KRAS tumor spheroid viability
Assay: Anticancer human tumor 292921-168-R-J2-PDC patient-derived pancreatic carcinoma cell line growth inhibition [KRAS2]
Conditions: spheroids with HUVEC and MSC; for IC50: curve of first compound; for viability, T/C: stronger effect = lower value
Excerpt: Multicellular complex tumor spheroid response to RAS pathway inhibitors in combination with a targeted agents in patient-derived cell lines with oncogenic KRAS variants from multiple cancer types
A high-throughput screen of multi-cell type tumor spheroids was designed to identify active combinations of targeted small molecules and KRAS pathway inhibitors. Complex spheroids include a stromal component modeled by human endothelial cells (HUVEC) and fibroblasts modeled by human mesenchymal stem cells (MSCs). The concentration ranges selected for each drug and investigational agent were based upon clinically achievable concentrations if the clinical Cmax of the agent was known.
Compounds. The drugs and investigational agents: BI-3406 (NSC825286), BAY-293 (NSC824723), batoprotafib (TNO155; NSC825523), sotorasib (AMG 510; NSC818433), MRTX1257 (NSC819558), elimusertib (BAY 1895344; NSC800525), molibresib (GSK525762; NSC774829), temuterkib (LY3214996; NSC803410), venetoclax (NSC766270), alisertib (NSC759677), olaparib (NSC753686), talazoparib (NSC767125), erdafitinib (NSC781556), ipatasertib (NSC767898), cabozantinib (NSC761068), nintedanib (NSC756659), abemaciclib (NSC768073), docetaxel (NSC628503), trametinib (NSC758246), and sapanisertib (NSC764658) were obtained from the National Cancer Institute (NCI) Developmental Therapeutics Program Chemical Repository. The FDA-approved anticancer drug set is available from the Developmental Therapeutics Program. […] The stock solutions were prepared in dimethyl sulfoxide (DMSO, Sigma-Aldrich, St. Louis, MO, cat. D2650) at 800-fold the tested concentration and stored at -70 degrees C prior to their use. All drugs and investigational agents were tested over a range starting from a high concentration at or near the clinical Cmax and decreasing in half-log increments. If the clinical Cmax for an agent had not been determined, the highest concentration tested was 10 microM.
Cell Culture. All cells were maintained in an incubator at 37 degrees C and 5% CO2 with 95% humidity. The PDC lines were cultured according to standard operating procedures established by the NCI PDMR (https://pdmr.cancer.gov/sops/default.htm). Briefly, all PDCs were thawed and cultured in Matrigel-coated flasks prepared with a working solution of 1X Ham's F-12 nutrient mix, without supplementation (Invitrogen, Waltham, MA, cat. 11765054), 100 U/mL penicillin-streptomycin (Invitrogen, cat. 15140122), and 2.5% Matrigel (Corning Inc., Corning, NY, cat. 354248) for the first three passages. All PDCs were cultured in complete DMEM/F-12 media containing advanced DMEM/F-12 (Invitrogen, cat. 12634028), 4.9% defined fetal bovine serum, heat inactivated (HyClone Laboratories Inc., Logan, UT, cat. SH30070.03HI), 389 ng/mL hydrocortisone (Sigma-Aldrich, cat. H4001), 9.7 ng/mL human EGF recombinant protein (Invitrogen, cat. PHG0313), 23.4 microg/mL adenine (Sigma-Aldrich, cat. A2786), 97.3 U/mL penicillin-streptomycin (Invitrogen, cat. 15140122), 1.9 mM L-glutamine (Invitrogen, cat. 25030081), and 9.7 microM Y-27632 dihydrochloride (Tocris Bioscience, Bristol, United Kingdom, cat. 1254). The PDCs were cultured in complete DMEM/F12 media without 9.7 microM Y-27632 dihydrochloride for at least two passages prior to the screen. The established cell line HOP-62 was cultured in RPMI 1640 medium, HEPES (Invitrogen, cat. 22400105) with 10% defined fetal bovine serum (HyClone Laboratories Inc., cat. SH30070.03) and 2 mM L-glutamine (Invitrogen, cat. 25030081). The pooled donor HUVEC were cultured in endothelial cell growth medium 2 (PromoCell, Heidelberg, Germany, cat. C-22011) and the hMSC were cultured in mesenchymal stem cell growth medium 2 (PromoCell, cat. C-28009). For all experiments, HUVEC and hMSC were used at passages </=5, while the malignant cell lines were used at passages </=15. […]

[1] = second compound 0.1 µM, first compound 0.01 µM
[2] = second compound 0.1 µM, first compound 0.0316 µM
[3] = second compound 0.1 µM, first compound 0.1 µM
[4] = second compound 0.1 µM, first compound 0.316 µM
[5] = second compound 0.1 µM, first compound 1 µM
[6] = second compound 0.1 µM, first compound 3.16 µM
[7] = second compound 0.316 µM, first compound 0.01 µM
[8] = second compound 0.316 µM, first compound 0.0316 µM
[9] = second compound 0.316 µM, first compound 0.1 µM
[10] = second compound 0.316 µM, first compound 0.316 µM
[11] = second compound 0.316 µM, first compound 1 µM
[12] = second compound 0.316 µM, first compound 3.16 µM
[13] = second compound 1 µM, first compound 0.01 µM
[14] = second compound 1 µM, first compound 0.0316 µM
[15] = second compound 1 µM, first compound 0.1 µM
[16] = second compound 1 µM, first compound 0.316 µM
[17] = second compound 1 µM, first compound 1 µM
[18] = second compound 1 µM, first compound 3.16 µM
[19] = second compound 3.16 µM, first compound 0.01 µM
[20] = second compound 3.16 µM, first compound 0.0316 µM
[21] = second compound 3.16 µM, first compound 0.1 µM
[22] = second compound 3.16 µM, first compound 0.316 µM
[23] = second compound 3.16 µM, first compound 1 µM
[24] = second compound 3.16 µM, first compound 3.16 µM
[25] = second compound 10 µM, first compound 0.01 µM
[26] = second compound 10 µM, first compound 0.0316 µM
[27] = second compound 10 µM, first compound 0.1 µM
[28] = second compound 10 µM, first compound 0.316 µM
[29] = second compound 10 µM, first compound 1 µM
[30] = second compound 10 µM, first compound 3.16 µM
[31] = second compound 0.1 µM, first compound 10 µM
[32] = second compound 0.316 µM, first compound 10 µM
[33] = second compound 1 µM, first compound 10 µM
[34] = second compound 3.16 µM, first compound 10 µM
[35] = second compound 10 µM, first compound 10 µM
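Note: drug exposure lasted seven days after spheroids formed for three days.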
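Throughout, for viability, T/C: percent of DMSO vehicle control viability which is 100%.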

| SMILES | IC50 (second compound 0.1 µM) [nM] | IC50 (second compound 0.316 µM) [nM] | IC50 (second compound 1 µM) [nM] | IC50 (second compound 3.16 µM) [nM] | IC50 (second compound 10 µM) [nM] | viability, T/C [2] [%] | viability, T/C [3] [%] | viability, T/C [4] [%] | viability, T/C [5] [%] | viability, T/C [6] [%] | viability, T/C [8] [%] | viability, T/C [9] [%] | viability, T/C [10] [%] | viability, T/C [11] [%] | viability, T/C [12] [%] | viability, T/C [14] [%] | viability, T/C [15] [%] | viability, T/C [16] [%] | viability, T/C [17] [%] | viability, T/C [18] [%] | other results |
| --- | --- | --- | --- | --- | --- | --- | --- | --- | --- | --- | --- | --- | --- | --- | --- | --- | --- | --- | --- | --- | --- |
| CC(=O)OC12COC1CC(O)C1(C)C(=O)C(O)C3=C(C)C(OC(=O)C(O)C(NC(=O)OC(C)(C)C)c4ccccc4)CC(O)(C(OC(=O)c4ccccc4)C21)C3(C)C (stereo not given) + COc1cc2nc(C)nc(NC(C)c3cc(N)cc(C(F)(F)F)c3)c2cc1OC1CCOC1 | < 10 | < 10 | < 10 | < 10 | < 10 | 15.2 | 10.7 | 12.1 | 14 | 19 | 14.7 | 10.9 | 12.6 | 14.7 | 18.8 | 16.2 | 13.6 | 10.9 | 16.1 | 18.9 | viability, T/C [1]: 13.7%; viability, T/C [7]: 13.7%; viability, T/C [13]: 13.3%; viability, T/C [19]: 12.1%; viability, T/C [20]: 13.4%; viability, T/C [21]: 11.2%; viability, T/C [22]: 11.4%; viability, T/C [23]: 14.1%; viability, T/C [24]: 18.7%; viability, T/C [25]: 13.5%; viability, T/C [26]: 13.3%; viability, T/C [27]: 14%; viability, T/C [28]: 12.8%; viability, T/C [29]: 11.9%; viability, T/C [30]: 13.2% |
| CC(C)NCC(C(=O)N1CCN(c2ncnc3c2C(C)CC3O)CC1)c1ccc(Cl)cc1 (stereo not given) + CNCc1ccccc1-c1csc(C(C)Nc2nc(C)nc3cc(OC)c(OC)cc23)c1 | 7140 | 5150 | 597 | < 31.6 | < 31.6 | 80.5 | 88.9 | 74.1 | 77.3 | 67.8 | 76.9 | 70.6 | 65.1 | 65.4 | 62.6 | 59.9 | 55.4 | 49.5 | 46.7 | 42.2 | viability, T/C [31]: 42.5%; viability, T/C [32]: 35.6%; viability, T/C [33]: 22.9%; viability, T/C [20]: 0.1%; viability, T/C [21]: 0.09%; viability, T/C [22]: 0.37%; viability, T/C [23]: 0.1%; viability, T/C [24]: 0.07%; viability, T/C [34]: 0.36%; viability, T/C [26]: 0.09%; viability, T/C [27]: 0.08%; viability, T/C [28]: 0.25%; viability, T/C [29]: 0.36%; viability, T/C [30]: 0.09%; viability, T/C [35]: 0.3% |
| CC1OCC2(CCN(c3cnc(Sc4ccnc(N)c4Cl)c(N)n3)CC2)C1N (stereo not given) + C=CC(=O)N1CCN(c2nc(=O)n(-c3c(C)ccnc3C(C)C)c3nc(-c4c(O)cccc4F)c(F)cc23)C(C)C1 | 1140 | 1920 | 2060 | 218 | < 31.6 | 96.8 | 83.1 | 64.5 | 51 | 42 | 108 | 82.5 | 69.2 | 59.9 | 45.6 | 104 | 89.9 | 73.5 | 55.5 | 46.6 | viability, T/C [31]: 33.4%; viability, T/C [32]: 34.2%; viability, T/C [33]: 41.1%; viability, T/C [20]: 65.2%; viability, T/C [21]: 57.6%; viability, T/C [22]: 45.9%; viability, T/C [23]: 39%; viability, T/C [24]: 36.7%; viability, T/C [34]: 29.6%; viability, T/C [26]: 17.8%; viability, T/C [27]: 15.9%; viability, T/C [28]: 16.3%; viability, T/C [29]: 15.5%; viability, T/C [30]: 15.1%; viability, T/C [35]: 14.4% |
| CC1COCCN1c1cc(-c2ccnn2C)c2ccnc(-c3ccn[nH]3)c2n1 (stereo not given) + CNCc1ccccc1-c1csc(C(C)Nc2nc(C)nc3cc(OC)c(OC)cc23)c1 | < 10 | < 10 | < 10 | < 10 | < 10 | 21 | 15.5 | 13.1 | 15.2 | 16.1 | 19.7 | 12.7 | 12.9 | 14.1 | 14.8 | 16.3 | 11.1 | 11.3 | 13.5 | 12.8 | viability, T/C [1]: 39.3%; viability, T/C [7]: 34.4%; viability, T/C [13]: 28.9%; viability, T/C [19]: 0.07%; viability, T/C [20]: 0.07%; viability, T/C [21]: 0.05%; viability, T/C [22]: 0.08%; viability, T/C [23]: 0.1%; viability, T/C [24]: 0.16%; viability, T/C [25]: 0.11%; viability, T/C [26]: 0.09%; viability, T/C [27]: 0.27%; viability, T/C [28]: 0.08%; viability, T/C [29]: 0.09%; viability, T/C [30]: 0.15% |
